The values that follow come from patent US10065963B2 (Incyte Corporation, priority 2015, dated 2018).

In test [1] the target is human JAK1 (a.a. 837-1142) (Homo sapiens, UniProt P23458). Put plainly: In vitro JAK kinase assay (JAK1). Format: biochemical. The following applies: 1 mM ATP.
The target in test [2] is human JAK2 (a.a. 828-1132) (Homo sapiens (Human), UniProt O60674). Put plainly: In vitro JAK kinase assay (JAK2). The following applies: IC50 ratio, 1 mM ATP. Type of test: biochemical.
Sequence of human JAK2 (a.a. 828-1132) (O60674 828-1132): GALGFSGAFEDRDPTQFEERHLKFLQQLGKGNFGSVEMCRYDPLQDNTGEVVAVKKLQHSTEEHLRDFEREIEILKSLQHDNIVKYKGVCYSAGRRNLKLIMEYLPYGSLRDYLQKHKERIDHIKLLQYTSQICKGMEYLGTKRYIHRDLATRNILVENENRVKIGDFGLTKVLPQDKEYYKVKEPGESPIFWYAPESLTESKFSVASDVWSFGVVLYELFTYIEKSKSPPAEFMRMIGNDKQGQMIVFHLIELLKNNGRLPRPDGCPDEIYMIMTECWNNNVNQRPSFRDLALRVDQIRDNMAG
For test [3], the target named is PI3Kδ (p110δ/p85α) Recombinant Human Protein (Homo sapiens (Human), UniProt O00329). Briefly: PI3Kδ scintillation proximity assay. Format: biochemical. The following applies: 2 μM ATP, 20 μM PIP2. (In a scintillation proximity assay essentially only radioactivity close to the scintillant gives light.)
Sequence of PI3Kδ (p110δ/p85α) Recombinant Human Protein (O00329 whole entry): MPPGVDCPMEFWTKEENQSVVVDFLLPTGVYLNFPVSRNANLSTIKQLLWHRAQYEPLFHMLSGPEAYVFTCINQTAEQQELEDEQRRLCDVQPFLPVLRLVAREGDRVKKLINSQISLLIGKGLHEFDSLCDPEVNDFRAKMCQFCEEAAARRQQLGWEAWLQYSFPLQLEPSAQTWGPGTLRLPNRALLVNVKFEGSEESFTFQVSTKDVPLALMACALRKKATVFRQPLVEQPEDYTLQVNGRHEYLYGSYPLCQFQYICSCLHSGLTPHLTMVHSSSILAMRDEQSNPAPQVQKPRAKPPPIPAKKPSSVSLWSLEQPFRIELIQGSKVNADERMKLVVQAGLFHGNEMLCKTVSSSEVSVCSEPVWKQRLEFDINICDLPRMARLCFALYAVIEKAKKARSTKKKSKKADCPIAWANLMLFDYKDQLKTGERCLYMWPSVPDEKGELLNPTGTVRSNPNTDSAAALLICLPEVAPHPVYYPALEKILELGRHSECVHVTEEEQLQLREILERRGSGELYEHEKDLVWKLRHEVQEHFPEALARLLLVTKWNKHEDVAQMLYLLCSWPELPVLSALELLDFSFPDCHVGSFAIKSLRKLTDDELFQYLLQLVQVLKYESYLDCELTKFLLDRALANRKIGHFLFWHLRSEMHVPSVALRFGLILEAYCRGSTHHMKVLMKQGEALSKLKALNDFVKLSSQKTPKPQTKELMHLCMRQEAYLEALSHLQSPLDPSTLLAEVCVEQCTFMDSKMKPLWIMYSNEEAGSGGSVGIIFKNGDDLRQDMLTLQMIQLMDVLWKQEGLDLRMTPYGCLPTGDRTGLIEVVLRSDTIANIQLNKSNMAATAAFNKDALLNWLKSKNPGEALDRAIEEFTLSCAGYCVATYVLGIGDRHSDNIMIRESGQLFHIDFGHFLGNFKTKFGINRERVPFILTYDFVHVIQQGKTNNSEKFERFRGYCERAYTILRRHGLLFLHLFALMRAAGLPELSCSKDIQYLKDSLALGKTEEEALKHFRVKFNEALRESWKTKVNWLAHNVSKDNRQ
Sequence of PI3Kδ (p110δ/p85α) Recombinant Human Protein (P27986 whole entry partner): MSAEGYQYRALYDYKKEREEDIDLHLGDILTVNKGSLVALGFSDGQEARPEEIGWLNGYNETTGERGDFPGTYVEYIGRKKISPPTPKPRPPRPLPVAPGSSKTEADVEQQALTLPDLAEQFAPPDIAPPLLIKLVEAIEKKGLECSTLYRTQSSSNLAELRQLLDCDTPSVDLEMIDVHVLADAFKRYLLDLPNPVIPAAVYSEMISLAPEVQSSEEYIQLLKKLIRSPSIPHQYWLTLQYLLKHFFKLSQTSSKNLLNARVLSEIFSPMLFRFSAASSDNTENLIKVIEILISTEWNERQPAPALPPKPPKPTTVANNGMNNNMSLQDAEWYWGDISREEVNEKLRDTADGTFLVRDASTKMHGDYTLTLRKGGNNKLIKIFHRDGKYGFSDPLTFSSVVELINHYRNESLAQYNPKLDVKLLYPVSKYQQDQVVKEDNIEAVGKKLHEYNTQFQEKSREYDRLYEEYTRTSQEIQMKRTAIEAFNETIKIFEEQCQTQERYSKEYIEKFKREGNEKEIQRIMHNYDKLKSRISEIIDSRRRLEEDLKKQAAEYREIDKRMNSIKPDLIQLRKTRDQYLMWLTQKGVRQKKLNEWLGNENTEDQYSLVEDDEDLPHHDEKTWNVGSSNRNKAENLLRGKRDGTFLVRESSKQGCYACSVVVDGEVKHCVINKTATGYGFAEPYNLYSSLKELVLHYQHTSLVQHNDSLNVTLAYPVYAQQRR
For test [4], the target named is PI3Kγ (p110γ) Recombinant Human Protein (Homo sapiens (Human), UniProt P48736). Put plainly: PI3K-γ scintillation proximity assay. Type of test: biochemical. The settings on record: 2 μM ATP, 20 μM PIP2.
Sequence of PI3Kγ (p110γ) Recombinant Human Protein (P48736 whole entry): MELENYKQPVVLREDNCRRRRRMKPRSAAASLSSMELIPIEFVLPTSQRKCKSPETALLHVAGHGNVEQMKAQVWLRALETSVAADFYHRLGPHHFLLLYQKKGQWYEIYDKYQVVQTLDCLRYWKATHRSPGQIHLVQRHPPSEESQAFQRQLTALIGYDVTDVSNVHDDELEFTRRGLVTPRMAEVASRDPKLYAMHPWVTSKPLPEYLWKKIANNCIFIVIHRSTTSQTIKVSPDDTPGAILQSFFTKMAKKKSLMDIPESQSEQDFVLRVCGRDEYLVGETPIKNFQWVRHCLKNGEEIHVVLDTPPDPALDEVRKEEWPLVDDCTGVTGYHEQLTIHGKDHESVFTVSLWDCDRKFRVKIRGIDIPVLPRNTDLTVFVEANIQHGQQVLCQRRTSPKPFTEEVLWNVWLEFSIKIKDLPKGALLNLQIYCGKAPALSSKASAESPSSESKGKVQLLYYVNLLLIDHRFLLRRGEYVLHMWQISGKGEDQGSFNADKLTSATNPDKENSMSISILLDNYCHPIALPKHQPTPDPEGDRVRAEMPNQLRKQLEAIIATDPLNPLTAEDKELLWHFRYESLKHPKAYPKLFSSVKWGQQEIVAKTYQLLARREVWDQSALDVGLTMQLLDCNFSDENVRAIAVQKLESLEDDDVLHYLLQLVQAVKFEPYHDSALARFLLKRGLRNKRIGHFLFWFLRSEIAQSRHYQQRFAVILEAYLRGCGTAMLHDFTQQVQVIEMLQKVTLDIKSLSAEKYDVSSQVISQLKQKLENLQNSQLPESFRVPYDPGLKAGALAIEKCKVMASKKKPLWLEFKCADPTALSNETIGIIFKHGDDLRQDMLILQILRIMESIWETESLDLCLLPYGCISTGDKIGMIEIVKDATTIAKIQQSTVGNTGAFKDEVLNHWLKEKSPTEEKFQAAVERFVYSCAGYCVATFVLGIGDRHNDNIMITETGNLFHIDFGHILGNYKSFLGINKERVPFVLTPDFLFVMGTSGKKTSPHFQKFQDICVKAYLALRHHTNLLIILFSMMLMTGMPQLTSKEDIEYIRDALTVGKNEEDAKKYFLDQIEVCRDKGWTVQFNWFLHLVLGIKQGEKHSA
For test [5], the system named is Phosphorylated Ribosomal Protein S6 (RPS6) in THP-1 cells. Briefly: THP-1 RPS6 ELISA assay. Type of test: cell-based, human. The settings on record: 10 nM MCP-1, read-out: PI3Kγ_THP1_RPS6_ELISA IC50.
Where [6] appears, read: Homo sapiens, THP-1, THP-1 cells.

The structures appear in SMILES notation. Where a name gives a salt, the structure may show the parent alone. Read-outs that look alike come from different tables or passages of the source.

Take `N#CCC(C1CCN(c2cccc(Cl)n2)C1)n1cc(-c2ncnc3[nH]ccc23)cn1` (single isomer, unassigned) [Example 3, 3-[1-(6-chloropyridin-2-yl)pyrrolidin-3-yl]-3-[4-(7H-pyrrolo[2,3-d]pyrimidin-4-yl)-1H-pyrazol-1-yl]propanenitrile]: the IC50 in test [1] was below 10 nM. Besides, the JAK2/JAK1 in test [2] is recorded as above 10.
Take `CC(NC(=O)c1c(N)nn2cccnc12)c1cc(Cl)c2cncn2c1N1C[C@H](O)C[C@H](C#N)C1` (stereo partly drawn) [Example 157, 2-Amino-N-(1-{8-chloro-5-[(3S,5R)-3-cyano-5-hydroxypiperidin-1-yl]imidazo[1,5-a]pyridin-6-yl}ethyl)pyrazolo[1,5-a]pyrimidine-3-carboxamide trifluoroacetate salt]: the half-maximal inhibitory concentration (IC50) in test [3] is below 500 nM; in test [4], below 100 nM; in test [5] (setting [6]), below 1000 nM.
For `CC(NC(=O)c1c(N)nn2cccnc12)c1cc(Cl)c2c(C#N)ncn2c1N1CCS(=O)(=O)C(C)C1` (centres unmarked) [Example 165, 2-Amino-N-(1-(8-chloro-1-cyano-5-(2-methyl-1,1-dioxidothiomorpholino)imidazo[1,5-a]pyridin-6-yl)ethyl)pyrazolo[1,5-a]pyrimidine-3-carboxamide trifluoroacetate salt], the IC50 in test [3] was below 2000 nM; in test [4], below 100 nM; in test [5] (setting [6]) it was below 500 nM.
On to `Nc1nn2cccnc2c1C(=O)NCc1cc(Cl)c2cncn2c1N1CCS(=O)(=O)CC1` [Example 166, 2-Amino-N-{[8-chloro-5-(1,1-dioxidothiomorpholin-4-yl)imidazo[1,5-a]pyridin-6-yl]methyl}pyrazolo[1,5-a]pyrimidine-3-carboxamide trifluoroacetate salt], for which the results for the IC50 in test [3], in test [4] and in test [5] (setting [6]) were below 2000 nM, below 100 nM and below 1000 nM, respectively.
For the compound `CC1(C)CN(c2c(CNC(=O)c3c(N)nn4cccnc34)cc(Cl)c3cncn23)CCS1(=O)=O` [Example 168, 2-Amino-N-((8-chloro-5-(2,2-dimethyl-1,1-dioxido-thiomorpholino)imidazo[1,5-a]pyridin-6-yl)methyl) pyrazolo[1,5-a] pyrimidine-3-carboxamide trifluoroacetate salt], the results for the IC50 in test [3], in test [4] and in test [5] (THP-1 cells) were below 2000 nM, below 100 nM and above 1000 nM, respectively.
For the compound `CC1(C)CN(c2c(CNC(=O)c3c(N)nn4cccnc34)cc(Cl)c3c(Cl)ncn23)CCS1(=O)=O` [Example 170, 2-Amino-N-((1,8-dichloro-5-(2,2-dimethyl-1,1-dioxidothio-morpholino)imidazo [1,5-a]pyridin-6-yl)methyl) pyrazolo[1,5-a] pyrimidine-3-carboxamide trifluoroacetate salt], the IC50 was below 2000 nM in test [3], below 100 nM in test [4] and above 1000 nM in test [5] (THP-1 cells).
For `Nc1nn2cccnc2c1C(=O)NCc1cc(Cl)c2cncn2c1N1CCCC1` [Example 171, 2-Amino-N-((8-chloro-5-(pyrrolidin-1-yl)imidazo[1,5-a]pyridin-6-yl)methyl)pyrazolo[1,5-a]pyrimidine-3-carboxamide trifluoroacetate salt], the results for the half-inhibitory concentration (IC50) in test [3], in test [4] and in test [5] (setting [6]) were below 500 nM, below 100 nM and above 1000 nM, respectively.
With `Nc1nn2cccnc2c1C(=O)NCc1cc(Cl)c2c(Cl)ncn2c1N1CCCC1` [Example 172, 2-Amino-N-((1,8-dichloro-5-(pyrrolidin-1-yl)imidazo[1,5-a]pyridin-6-yl)methyl)pyrazolo[1,5-a]pyrimidine-3-carboxamidetrifluoroacetate salt], the IC50 in test [3] is below 500 nM; in test [4] it was below 100 nM; in test [5] (setting [6]) it was below 1000 nM.
For `N#Cc1ncn2c(N3CCCC3)c(CNC(=O)c3c(N)nn4cccnc34)cc(Cl)c12` [Example 173, 2-Amino-N-((8-chloro-1-cyano-5-(pyrrolidin-1-yl)imidazo[1,5-a]pyridin-6-yl)methyl)pyrazolo[1,5-a]pyrimidine-3-carboxamide trifluoroacetate salt] the same measures were below 2000 nM, below 500 nM and above 1000 nM.
`CC1CN(c2c(CNC(=O)c3c(N)nn4cccnc34)cc(Cl)c3c(C#N)ncn23)CCS1(=O)=O` (centres unmarked) [Example 174, 2-Amino-N-((8-chloro-1-cyano-5-(2-methyl-1,1-dioxidothiomorpholino)imidazo[1,5-a]pyridin-6-yl)methyl)pyrazolo[1,5-a]pyrimidine-3-carboxamide trifluoroacetate salt]: the IC50 in test [3] is below 2000 nM; in test [4] it was below 100 nM; in test [5] (setting [6]) it was above 1000 nM.
As to `CCC(NC(=O)c1c(N)nn2cccnc12)c1cc(Cl)c2c(C#N)ncn2c1N1CCS(=O)(=O)C(C)C1` (centres unmarked) [Example 175, 2-Amino-N-(1-(8-chloro-1-cyano-5-(2-methyl-1,1-dioxidothiomorpholino)imidazo[1,5-a]pyridin-6-yl)propyl)pyrazolo[1,5-a]pyrimidine-3-carboxamide trifluoroacetate salt], the values for the IC50 in test [3], in test [4] and in test [5] (setting [6]) were below 2000 nM, below 100 nM and below 500 nM, respectively.
For the compound `CC1CN(c2c(C(NC(=O)c3c(N)nn4cccnc34)C3CC3)cc(Cl)c3c(C#N)ncn23)CCS1(=O)=O` (centres unmarked) [Example 176, 2-Amino-N-((8-chloro-1-cyano-5-(2-methyl-1,1-dioxidothio-morpholino)imidazo [1,5-a]pyridin-6-yl)(cyclopropyl)methyl)pyrazolo [1,5-a]pyrimidine-3-carboxamide trifluoroacetate salt], the IC50 was below 2000 nM in test [3], below 100 nM in test [4] and below 500 nM in test [5] (setting [6]).
For `CC1CN(c2c(C(NC(=O)c3c(N)nn4cccnc34)C(F)(F)F)cc(Cl)c3c(C#N)ncn23)CCS1(=O)=O` (centres unmarked) [Example 177, 2-Amino-N-(1-(8-chloro-1-cyano-5-(2-methyl-1,1-dioxidothiomorpholino)imidazo[1,5-a]pyridin-6-yl)-2,2,2-trifluoroethyl)pyrazolo[1,5-a]pyrimidine-3-carboxamide trifluoroacetate salt], the IC50 is at least 2000 nM in test [3], below 100 nM in test [4] and below 1000 nM in test [5] (setting [6]).
With `CCC(NC(=O)c1c(N)nn2cccnc12)c1cc(Cl)c2cncn2c1N1CCS(=O)(=O)CC1` (centres unmarked) [Example 179, 2-Amino-N-{1-[8-chloro-5-(1,1-dioxidothio-morpholin-4-yl)imidazo[1,5-a]pyridin-6-yl]propyl} pyrazolo[1,5-a] pyrimidine-3-carboxamide trifluoroacetate salt], the IC50 in test [3] was below 100 nM; in test [4] it was below 100 nM; in test [5] (THP-1 cells), below 500 nM.

In general, IC50 refers to the concentration at which inhibition is half-maximal.
